Assay results taken from patent US20240300943A1, “NOVEL SALTS OF HETEROCYCLIC COMPOUND AS PROTEIN KINASE INHIBITOR AND USES THEREOF” (HK INNO.N CORPORATION, priority 2021, published 2024).
Each block holds one compound with its values, some of them ahead of it.

Legend:
Assay type in all cases: physicochemical
[1] = Measurement of water solubility; conditions: saturated solution shaken at room temperature for 24 hours
Method: A liquid phase was taken out of the solution and filtered using a 0.22 μm PVDF filter. The filtered liquid phase was diluted 10-fold for LC analysis.
LC analysis was performed by the following method.

[2] = Photostability evaluation
Excerpt: Samples were packaged in LPDE bag, and stored under visible (1.2M Lux-h), UV (200 W-h/m2) and UV+visible conditions, respectively, and then evaluated.

[3] = Hygroscopicity evaluation; conditions: for Individual related material: in %
Excerpt: Samples were placed in a glass desiccator in which relative humidity was adjusted to 33%, 53%, 75%, and 93%, and then stored for two and four weeks to be evaluated.

[4] = Physical stability evaluation under stress conditions
Method: In order to evaluate physical stability, samples were packaged in the form of ((LPDE+N2)+silica gel 1 g+LDPE)+Al-Bag, and stored under stress conditions (60° C.±2° C./80% RH±5%) for 2/4 weeks before evaluation.
In table 2, initial is a result measured after preparation of salts, and S2W and S4W are results measured after two and four weeks while being exposed to stress conditions, respectively.

Water solubility [1]: 1900 µg/mL | Individual related material ([2]; Initial): 0.13% | Total related material ([2]; Initial): 1.13% | Individual related material ([2]; Solid, Control): 0.14% | Total related material ([2]; Solid, Control): 0.14% | Individual related material ([2]; Solid, UV (200 W-h/m2)): 0.13% | Total related material ([2]; Solid, UV (200 W-h/m2)): 0.27% | Individual related material ([2]; Solid, UV + Vis): 0.13% | Total related material ([2]; Solid, UV + Vis): 0.72% | Individual related material ([2]; Solid, UV + Vis Control): 0.14% | Total related material ([2]; Solid, UV + Vis Control): 0.14% | Individual related material ([2]; Solid, Vis (1.2M Lux-h)): 0.13% | Total related material ([2]; Solid, Vis (1.2M Lux-h)): 0.68% | Total related material ([3]; Initial): 1.13% | Water ([3]; Initial): 0.67% | Individual related material ([3]; Initial): 0.13 | Total related material ([3]; relative humidity 33%, 2 W): 1.1% | Water ([3]; relative humidity 33%, 2 W): 0.56% | Individual related material ([3]; relative humidity 33%, 2 W): 0.14 | Total related material ([3]; relative humidity 33%, 4 W): 1.07% | Water ([3]; relative humidity 33%, 4 W): 0.54% | Individual related material ([3]; relative humidity 33%, 4 W): 0.14 | Total related material ([3]; relative humidity 53%, 2 W): 1.18% | Water ([3]; relative humidity 53%, 2 W): 0.80% | Individual related material ([3]; relative humidity 53%, 2 W): 0.15 | Total related material ([3]; relative humidity 53%, 4 W): 1.04% | Water ([3]; relative humidity 53%, 4 W): 0.65% | Individual related material ([3]; relative humidity 53%, 4 W): 0.15 | Total related material ([3]; relative humidity 75%, 2 W): 1.18% | Water ([3]; relative humidity 75%, 2 W): 1.44% | Individual related material ([3]; relative humidity 75%, 2 W): 0.15 | Total related material ([3]; relative humidity 75%, 4 W): 1.18% | Water ([3]; relative humidity 75%, 4 W): 1.02% | Individual related material ([3]; relative humidity 75%, 4 W): 0.16 | Total related material ([3]; relative humidity 93%, 2 W): 1.17% | Water ([3]; relative humidity 93%, 2 W): 2.03% | Individual related material ([3]; relative humidity 93%, 2 W): 0.16 | Total related material ([3]; relative humidity 93%, 4 W): 1.15% | Water ([3]; relative humidity 93%, 4 W): 1.72% | Individual related material ([3]; relative humidity 93%, 4 W): 0.17 | C.I quantitative ([4]; Initial): 40.3% | Content (anhydride, as anhydride) ([4]; Initial): 100.4% | Moisture ([4]; Initial): 0.67% | Purity: Individual related material ([4]; Initial): 0.13% | Purity: Total related material ([4]; Initial): 1.13% | C.I quantitative ([4]; S2W: 2 weeks at 60° C./80% RH): 40.3% | Content (anhydride, as anhydride) ([4]; S2W: 2 weeks at 60° C./80% RH): 101.9% | Purity: Individual related material ([4]; S2W: 2 weeks at 60° C./80% RH): 0.23% | Purity: Total related material ([4]; S2W: 2 weeks at 60° C./80% RH): 1.32% | C.I quantitative ([4]; S4W: 4 weeks at 60° C./80% RH): 40.6% | Content (anhydride, as anhydride) ([4]; S4W: 4 weeks at 60° C./80% RH): 101.9% | Moisture ([4]; S4W: 4 weeks at 60° C./80% RH): 0.98% | Purity: Individual related material ([4]; S4W: 4 weeks at 60° C./80% RH): 0.30% | Purity: Total related material ([4]; S4W: 4 weeks at 60° C./80% RH): 1.31%
Compound: C[C@@H]1CN(C(=O)CC#N)CC=C1c1cc(NC(=O)C2CC2)nc2[nH]ccc12 [Example 4, (S)—N-(4-(1-(2-cyanoacetyl)-3-methyl-1,2,3,6-tetrahydropyridin-4-yl)-1H-pyrrolo[2,3-b]pyridin-6-yl)cyclopropanecarboxamide]

Water solubility [1]: 5900 µg/mL | Individual related material ([2]; Initial): 0.12% | Total related material ([2]; Initial): 0.56% | Individual related material ([2]; Solid, Control): 0.11% | Total related material ([2]; Solid, Control): 0.44% | Individual related material ([2]; Solid, UV (200 W-h/m2)): 0.11% | Total related material ([2]; Solid, UV (200 W-h/m2)): 0.6% | Individual related material ([2]; Solid, UV + Vis): 0.12% | Total related material ([2]; Solid, UV + Vis): 0.91% | Individual related material ([2]; Solid, UV + Vis Control): 0.12% | Total related material ([2]; Solid, UV + Vis Control): 0.48% | Individual related material ([2]; Solid, Vis (1.2M Lux-h)): 0.11% | Total related material ([2]; Solid, Vis (1.2M Lux-h)): 0.69% | Total related material ([3]; Initial): 0.56% | Water ([3]; Initial): 3.93% | Individual related material ([3]; Initial): 0.12 | Total related material ([3]; relative humidity 33%, 2 W): 0.53% | Water ([3]; relative humidity 33%, 2 W): 3.70% | Individual related material ([3]; relative humidity 33%, 2 W): 0.11 | Total related material ([3]; relative humidity 33%, 4 W): 0.55% | Water ([3]; relative humidity 33%, 4 W): 3.94% | Individual related material ([3]; relative humidity 33%, 4 W): 0.10 | Total related material ([3]; relative humidity 53%, 2 W): 0.66% | Water ([3]; relative humidity 53%, 2 W): 3.62% | Individual related material ([3]; relative humidity 53%, 2 W): 0.12 | Total related material ([3]; relative humidity 53%, 4 W): 0.59% | Water ([3]; relative humidity 53%, 4 W): 3.96% | Individual related material ([3]; relative humidity 53%, 4 W): 0.11 | Total related material ([3]; relative humidity 75%, 2 W): 0.58% | Water ([3]; relative humidity 75%, 2 W): 3.78% | Individual related material ([3]; relative humidity 75%, 2 W): 0.11 | Total related material ([3]; relative humidity 75%, 4 W): 0.61% | Water ([3]; relative humidity 75%, 4 W): 3.93% | Individual related material ([3]; relative humidity 75%, 4 W): 0.11 | Total related material ([3]; relative humidity 93%, 2 W): 0.54% | Water ([3]; relative humidity 93%, 2 W): 3.71% | Individual related material ([3]; relative humidity 93%, 2 W): 0.11 | Total related material ([3]; relative humidity 93%, 4 W): 0.62% | Water ([3]; relative humidity 93%, 4 W): 3.94% | Individual related material ([3]; relative humidity 93%, 4 W): 0.10 | C.I quantitative ([4]; Initial): 18.1% | Content (anhydride, as anhydride) ([4]; Initial): 100.7% | Moisture ([4]; Initial): 3.93% | Purity: Individual related material ([4]; Initial): 0.12% | Purity: Total related material ([4]; Initial): 0.56% | C.I quantitative ([4]; S2W: 2 weeks at 60° C./80% RH): 17.8% | Content (anhydride, as anhydride) ([4]; S2W: 2 weeks at 60° C./80% RH): 101.4% | Moisture ([4]; S2W: 2 weeks at 60° C./80% RH): 3.93% | Purity: Individual related material ([4]; S2W: 2 weeks at 60° C./80% RH): 0.11% | Purity: Total related material ([4]; S2W: 2 weeks at 60° C./80% RH): 0.63% | C.I quantitative ([4]; S4W: 4 weeks at 60° C./80% RH): 17.8% | Content (anhydride, as anhydride) ([4]; S4W: 4 weeks at 60° C./80% RH): 99.2% | Moisture ([4]; S4W: 4 weeks at 60° C./80% RH): 3.79% | Purity: Individual related material ([4]; S4W: 4 weeks at 60° C./80% RH): 0.14% | Purity: Total related material ([4]; S4W: 4 weeks at 60° C./80% RH): 0.58%
Compound: C[C@@H]1CN(C(=O)CC#N)CC=C1c1cc(NC(=O)C2CC2)nc2[nH]ccc12 [Example 2, (S)—N-(4-(1-(2-cyanoacetyl)-3-methyl-1,2,3,6-tetrahydropyridin-4-yl)-1H-pyrrolo[2,3-b]pyridin-6-yl)cyclopropanecarboxamide]
